Assay type in all cases: cell-based
The test system of assay [1] is Staphylococcus aureus AH430. In words: MIC by microtiter broth dilution, strain AH430. To be noted: 18 hrs static; for MIC50: at least 50% inhibition of growth by OD; for MIC90: at least 90% inhibition of growth by OD.
In assay [2] the test system is Staphylococcus aureus AH1747. In words: MIC by microtiter broth dilution, strain AH1747. To be noted: 18 hrs static. Background: In broth dilution the organism is exposed to a series of concentrations in liquid medium.
Assay [3] relates to Staphylococcus aureus AH1872. In words: microbe, parasite or virus in culture. Particulars: AH1872, 18 h.
Assay [4] concerns Staphylococcus aureus UAMS-1. In words: MIC by microtiter broth dilution, strain UAMS-1. Particulars: 18 hrs static.
For assay [5], the system named is Propionibacterium acnes HL005PA2. In words: Growth inhibition (MIC) of Propionibacterium acnes HL005PA2. Particulars: Cutibacterium acnes, P. acnes HL005PA2.
The subject of assay [6] is Propionibacterium acnes ATCC6919. In words: Growth inhibition (MIC) of Propionibacterium acnes ATCC6919. Particulars: Cutibacterium acnes.

Converted amounts (≈) assume the structure as drawn.

Turning to `NC[C@H]1O[C@H](O[C@H]2[C@H](O)[C@@H](O[C@H]3O[C@H](CO)[C@@H](O)[C@H](N)[C@H]3O)[C@H](N)C[C@@H]2N)[C@H](O)[C@@H](O)[C@@H]1O` [Kan, Kanamycin], the MIC50 in assay [1] is 2 µg/mL (≈ 4.13 µM); in assay [2] (50% inhibition of growth) it was 1 µg/mL (≈ 2.06 µM); in assay [3] it was 1 µg/mL (≈ 2.06 µM); in assay [4] (UAMS1, 50% inhibition of growth), 2 µg/mL (≈ 4.13 µM). Also, the MIC90 in assay [1] stood at 4 µg/mL (≈ 8.26 µM); in assay [2] (90% inhibition of growth), 2 µg/mL (≈ 4.13 µM); in assay [3], 4 µg/mL (≈ 8.26 µM); in assay [4] (UAMS1, 90% inhibition of growth) it was 4 µg/mL (≈ 8.26 µM).
In the case of `CCC[C@@H]1C[C@@H](C(=O)N[C@@H]([C@H]2O[C@H](SC)[C@H](O)[C@@H](O)[C@H]2O)[C@H](C)Cl)N(C)C1` [Clin, clindamycin], the values for the MIC50 in assay [5] (50% inhibition of the growth control) and in assay [6] were 0.0625 µg/mL (≈ 0.147 µM) and 0.125 µg/mL (≈ 0.294 µM), respectively. The MIC90 in assay [5] (90% inhibition) was 0.25 µg/mL (≈ 0.588 µM); in assay [6], 0.125 µg/mL (≈ 0.294 µM).
In the case of `CC1(C)S[C@@H]2[C@H](NC(=O)[C@H](N)c3ccccc3)C(=O)N2[C@H]1C(=O)O` [Amp, Ampicillin], in assay [1], the MIC50 was found to be 0.0625 µg/mL (≈ 0.179 µM) and the MIC90 was 0.125 µg/mL (≈ 0.358 µM). In assay [3], this compound yielded an MIC50 of 4 µg/mL (≈ 11.4 µM) and an MIC90 of 8 µg/mL (≈ 22.9 µM).
